Results reported in the supplement of paper PMC10307832.

Columns and labels:
Assay in all cases: relative viability (nuclei count vs DMSO), 5 days (fraction); higher = more cells survive
SK-LU-1 = system: SK-LU-1
How it was run: (§1)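 Lung cancer cell lines in 1536-well plates were dosed by pin tool the day after seeding, either with one drug alone or with a fixed anchor-drug dose plus five library-drug doses (not always all listed) in √10 steps. After 5 days, cells were fixed and their nuclei stained in one step (final 0.05% Triton X-100, 1% formaldehyde, 1 ug/ml Hoechst), then counted on 4× images. Relative viability is the nuclei count in treated wells divided by that in vehicle wells. Values are medians of duplicate plates.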

Calu-6 = system: Calu-6
How it was run: as §1

NCI-H1666 = system: NCI-H1666
How it was run: as §1

IA-LM = system: IA-LM
How it was run: as §1

PC-14 = system: PC-14
How it was run: as §1

EBC-1 = system: EBC-1
How it was run: as §1

NCI-H1703 = system: NCI-H1703
How it was run: as §1

NCI-H1944 = system: NCI-H1944
How it was run: as §1

A549 = system: A549
How it was run: as §1

NCI-H661 = system: NCI-H661
How it was run: as §1

NCI-H596 = system: NCI-H596
How it was run: as §1

NCI-H1299 = system: NCI-H1299
How it was run: as §1

With Cc1csc(=NC2CCCCC2)n1/N=C/c1ccc(O)c(O)c1O [MIM1] + CS(=O)(=O)CCNCc1ccc(-c2ccc3ncnc(Nc4ccc(OCc5cccc(F)c5)c(Cl)c4)c3c2)o1 [Lapatinib] (partner 2 µM) the relative viability (SK-LU-1; first compound 0.2 µM) was 0.825, the relative viability (SK-LU-1; first compound 0.6325 µM) was 0.839 and the relative viability (SK-LU-1; first compound 2 µM) was 0.791. For the same compound, the relative viability (SK-LU-1; first compound 6.325 µM) was 0.72, the relative viability (SK-LU-1; first compound 20 µM) was 0.325 and the relative viability (Calu-6; first compound 0.2 µM) was 1.08. The relative viability (Calu-6; first compound 0.6325 µM) was 0.985, the relative viability (Calu-6; first compound 2 µM) was 1.06 and the relative viability (Calu-6; first compound 6.325 µM) was 0.509. The relative viability (Calu-6; first compound 20 µM) was 0.289, the relative viability (NCI-H1666; first compound 0.2 µM) was 0.662 and the relative viability (NCI-H1666; first compound 0.6325 µM) was 0.577. It also gave a relative viability (NCI-H1666; first compound 2 µM) of 0.507, a relative viability (NCI-H1666; first compound 6.325 µM) of 0.362 and a relative viability (NCI-H1666; first compound 20 µM) of 0.206. It also gave a relative viability (IA-LM; first compound 0.2 µM) of 0.66, a relative viability (IA-LM; first compound 0.6325 µM) of 0.869 and a relative viability (IA-LM; first compound 2 µM) of 0.716. It also gave a relative viability (IA-LM; first compound 6.325 µM) of 0.375, a relative viability (IA-LM; first compound 20 µM) of 0.151 and a relative viability (PC-14; first compound 0.2 µM) of 0.305. The relative viability (PC-14; first compound 0.6325 µM) was 0.332, the relative viability (PC-14; first compound 2 µM) was 0.363 and the relative viability (PC-14; first compound 6.325 µM) was 0.349. For the same compound, the relative viability (PC-14; first compound 20 µM) was 0.479, the relative viability (EBC-1; first compound 0.2 µM) was 0.199 and the relative viability (EBC-1; first compound 0.6325 µM) was 0.279. It also gave a relative viability (EBC-1; first compound 2 µM) of 0.212, a relative viability (EBC-1; first compound 6.325 µM) of 0.209 and a relative viability (EBC-1; first compound 20 µM) of 0.205. For the same compound, the relative viability (NCI-H1703; first compound 0.2 µM) was 1.02, the relative viability (NCI-H1703; first compound 0.6325 µM) was 1.23 and the relative viability (NCI-H1703; first compound 2 µM) was 0.906. For the same compound, the relative viability (NCI-H1703; first compound 6.325 µM) was 0.166, the relative viability (NCI-H1703; first compound 20 µM) was 0.202 and the relative viability (NCI-H1944; first compound 0.2 µM) was 0.889. The relative viability (NCI-H1944; first compound 0.6325 µM) was 0.805, the relative viability (NCI-H1944; first compound 2 µM) was 0.491 and the relative viability (NCI-H1944; first compound 6.325 µM) was 0.535. For the same compound, the relative viability (NCI-H1944; first compound 20 µM) was 0.445, the relative viability (A549; first compound 0.2 µM) was 0.997 and the relative viability (A549; first compound 0.6325 µM) was 0.941. It also gave a relative viability (A549; first compound 2 µM) of 1.03, a relative viability (A549; first compound 6.325 µM) of 0.595 and a relative viability (A549; first compound 20 µM) of 0.222. It also gave a relative viability (NCI-H661; first compound 0.2 µM) of 0.582, a relative viability (NCI-H661; first compound 0.6325 µM) of 0.625 and a relative viability (NCI-H661; first compound 2 µM) of 0.548. It also gave a relative viability (NCI-H661; first compound 6.325 µM) of 0.498, a relative viability (NCI-H661; first compound 20 µM) of 0.29 and a relative viability (NCI-H596; first compound 0.2 µM) of 1.13. For the same compound, the relative viability (NCI-H596; first compound 0.6325 µM) was 1.16, the relative viability (NCI-H596; first compound 2 µM) was 1.07 and the relative viability (NCI-H596; first compound 6.325 µM) was 0.932. For the same compound, the relative viability (NCI-H596; first compound 20 µM) was 0.733, the relative viability (NCI-H1299; first compound 0.2 µM) was 0.978 and the relative viability (NCI-H1299; first compound 0.6325 µM) was 0.954. For the same compound, the relative viability (NCI-H1299; first compound 2 µM) was 1, the relative viability (NCI-H1299; first compound 6.325 µM) was 0.924 and the relative viability (NCI-H1299; first compound 20 µM) was 0.948.
Work on Cc1csc(=NC2CCCCC2)n1/N=C/c1ccc(O)c(O)c1O [MIM1] + CS(=O)(=O)N1CCN(Cc2cc3nc(-c4cccc5[nH]ncc45)nc(N4CCOCC4)c3s2)CC1 [Pictilisib] (partner 1 µM) yielded a relative viability (SK-LU-1; first compound 0.2 µM) of 0.636, a relative viability (SK-LU-1; first compound 0.6325 µM) of 0.594 and a relative viability (SK-LU-1; first compound 2 µM) of 0.625. It also gave a relative viability (SK-LU-1; first compound 6.325 µM) of 0.466, a relative viability (SK-LU-1; first compound 20 µM) of 0.354 and a relative viability (Calu-6; first compound 0.2 µM) of 0.909. The relative viability (Calu-6; first compound 0.6325 µM) was 0.892, the relative viability (Calu-6; first compound 2 µM) was 0.942 and the relative viability (Calu-6; first compound 6.325 µM) was 0.499. It also gave a relative viability (Calu-6; first compound 20 µM) of 0.196, a relative viability (NCI-H1666; first compound 0.2 µM) of 0.605 and a relative viability (NCI-H1666; first compound 0.6325 µM) of 0.398. It also gave a relative viability (NCI-H1666; first compound 2 µM) of 0.476, a relative viability (NCI-H1666; first compound 6.325 µM) of 0.422 and a relative viability (NCI-H1666; first compound 20 µM) of 0.311. The relative viability (IA-LM; first compound 0.2 µM) was 0.36, the relative viability (IA-LM; first compound 0.6325 µM) was 0.328 and the relative viability (IA-LM; first compound 2 µM) was 0.261. It also gave a relative viability (IA-LM; first compound 6.325 µM) of 0.18, a relative viability (IA-LM; first compound 20 µM) of 0.0832 and a relative viability (PC-14; first compound 0.2 µM) of 0.629. It also gave a relative viability (PC-14; first compound 0.6325 µM) of 0.709, a relative viability (PC-14; first compound 2 µM) of 0.628 and a relative viability (PC-14; first compound 6.325 µM) of 0.55. The relative viability (PC-14; first compound 20 µM) was 0.488, the relative viability (EBC-1; first compound 0.2 µM) was 0.352 and the relative viability (EBC-1; first compound 0.6325 µM) was 0.384. The relative viability (EBC-1; first compound 2 µM) was 0.355, the relative viability (EBC-1; first compound 6.325 µM) was 0.253 and the relative viability (EBC-1; first compound 20 µM) was 0.191. The relative viability (NCI-H1703; first compound 0.2 µM) was 0.219, the relative viability (NCI-H1703; first compound 0.6325 µM) was 0.304 and the relative viability (NCI-H1703; first compound 2 µM) was 0.286. For the same compound, the relative viability (NCI-H1703; first compound 6.325 µM) was 0.177, the relative viability (NCI-H1703; first compound 20 µM) was 0.182 and the relative viability (NCI-H1944; first compound 0.2 µM) was 0.394. For the same compound, the relative viability (NCI-H1944; first compound 0.6325 µM) was 0.335, the relative viability (NCI-H1944; first compound 2 µM) was 0.296 and the relative viability (NCI-H1944; first compound 6.325 µM) was 0.34. It also gave a relative viability (NCI-H1944; first compound 20 µM) of 0.384, a relative viability (A549; first compound 0.2 µM) of 0.508 and a relative viability (A549; first compound 0.6325 µM) of 0.565. For the same compound, the relative viability (A549; first compound 2 µM) was 0.636, the relative viability (A549; first compound 6.325 µM) was 0.15 and the relative viability (A549; first compound 20 µM) was 0.0858. The relative viability (NCI-H661; first compound 0.2 µM) was 0.388, the relative viability (NCI-H661; first compound 0.6325 µM) was 0.367 and the relative viability (NCI-H661; first compound 2 µM) was 0.357. For the same compound, the relative viability (NCI-H661; first compound 6.325 µM) was 0.38, the relative viability (NCI-H661; first compound 20 µM) was 0.345 and the relative viability (NCI-H596; first compound 0.2 µM) was 0.419. It also gave a relative viability (NCI-H596; first compound 0.6325 µM) of 0.457, a relative viability (NCI-H596; first compound 2 µM) of 0.406 and a relative viability (NCI-H596; first compound 6.325 µM) of 0.352. It also gave a relative viability (NCI-H596; first compound 20 µM) of 0.402, a relative viability (NCI-H1299; first compound 0.2 µM) of 0.726 and a relative viability (NCI-H1299; first compound 0.6325 µM) of 0.791. For the same compound, the relative viability (NCI-H1299; first compound 2 µM) was 0.765, the relative viability (NCI-H1299; first compound 6.325 µM) was 0.535 and the relative viability (NCI-H1299; first compound 20 µM) was 0.354.
